Where a SMILES comes first, the peptide text is derived from it. [ ]: non-standard residue; d: D form. d2Nal = N[C@H](Cc1ccc2ccccc2c1)C(=O)O
Tested on: papillary muscle of guinea-pig
Assay: Myocardial contractility (developed tension) in isolated, electrically driven papillary muscle of guinea-pig
Settings: cumulative 10, 30 and 100 μM; n=5; FIG. 1
Protocol: [Test Example 1] Myocardial Contractility Enhancing Action of Pralmorelin in the Papillary Muscle of Guinea-Pig
The direct effect of pralmorelin on myocardial contractility was evaluated using the isolated cardiac muscle of guinea-pigs according to the standard method for evaluating myocardial contractility. • 1. Materials and Experimental Method • 1) Animal Used
Male Hartley guinea-pigs (body weight, 301-350 g; Japan SLC) were purchased. The animals were accommodated to an environment at a temperature of 23±2° C. and a humidity of 55±15% under 12-hr light/dark cycles while they were allowed to eat and drink water ad libitum until they weighed 360-480 g. Each test substance was tested on a group of five animals. • 2) Reagents Used
The test substances were pralmorelin dihydrochloride (KP-102), representatives of growth hormone secretagogues such as hexarelin, ghrelin and ibutamorelin methanesulfonate (the last being hereunder referred to as MK-0677) (which were prepared by the method described in JP 6-263737 A (kokai)), as well as a recombinant human growth hormone (Sumitomo Pharmaceutical) and amrinone (Sigma) which is a known therapeutic of acute heart failure. KP-102, hexarelin and MK-0677 were dissolved in distilled water. Ghrelin was dissolved in physiological saline. Amrinone was first dissolved in dimethyl sulfoxide and then diluted with physiological saline. The growth hormone was dissolved in a dedicated solubilizer (0.3 w/v % metacresol and 3.9 w/v % D-mannitol). None of the test substance solutions should be added in an amount exceeding 1 w/v %. All reagents other than the test substances were guaranteed products of Nacalai Tesque. • 3) Preparing Specimens of the Isolated Papillary Muscle
The guinea-pigs were stunned with a blow to the back of their head; thereafter, the carotid artery was incised and the animals were exsanguinated to death. The chest was opened, the blood vessels in the upper part of the heart were cut and the heart was removed. The heart was immediately transferred into a Krebs-Henseleit (K-H) nutrient solution (NaCl, 118.0 mM; KCl, 4.7 mM; CaCl2. 2H2O, 1.0 mM; KH2PO4, 1.2 mM; MgSO4.7H2O, 1.2 mM; NaHCO3, 25.0 mM; glucose, 11.0 mM) that had been fully aerated with 95% O2-5% CO2. The heart was fixed on a rubber-lined Petri dish with needles such that its front face was seen. The ventricular wall of the upper right ventricle (toward the atrium) was excised transversely along the atrium, then excised longitudinally along the interventricular septum so that the ventricular wall was opened to expose the right ventricular papillary muscle. Subsequently, the entire surface of the left ventricle was cut open from the aorta (down) to the apex and the anterior wall of the left ventricle was opened wide, to both right and left, and fixed to expose the papillary muscle of the left ventricle. The tricupsid or mitral valve was cut off from the ventricle and the papillary muscle was cut off at the base to prepare a specimen of papillary muscle. The base of the specimen was fixed to field stimulating electrodes in an organ bath filled with 15 mL of the nutrient solution. The tendinous cord adhering to the valve was tied up with a thread and connected to an FD pickup (TB-612T, Nihon Kohden). A resting tension of 0.5 g was loaded and the papillary muscle was driven with an electric stimulator (SEN-3201, Nihon Kohden) at a frequency of 1 Hz by pulses of 20-ms duration and at a voltage intensity about 1.2 times the threshold. After an equilibration period of about 1 hr, KP-102, hexarelin and amrinone were each applied cumulatively up to amounts of 10, 30 and 100 μM. After examination of the changes in inotropic action due to the application of the test substances, 12.5 mM of CaCl2 was added and the maximum tension that was developed by each specimen was obtained. […]

C[C@H](NC(=O)[C@@H](Cc1ccc2ccccc2c1)NC(=O)[C@@H](C)N)C(=O)N[C@@H](Cc1c[nH]c2ccccc12)C(=O)N[C@H](Cc1ccccc1)C(=O)N[C@@H](CCCCN)C(N)=O [KP-102, D-alanyl-3-(naphthalen-2-yl)-D-alanyl-L-alanyl-L-tryptophyl-D-phenylalanyl-L-lysinamide] (H-[dA][d2Nal]AW[dF]K-NH2)
tension development (positive inotropic action) vs baseline: significant effect over the baseline value

Source: US6878689B2, “Preventives or remedies for heart failure” (Kaken Pharmaceutical Co., Ltd., priority 2000, dated 2005)
